Assay results from paper PMC4601051, “Discovery of Indoline-2-carboxamide Derivatives as a New Class of Brain-Penetrant Inhibitors of Trypanosoma brucei” (Journal of Medicinal Chemistry, 2015).

Columns and labels:
[1] = system: panel of receptors, including dopamine, serotonin, histamine, and muscarinic receptors; test: NIMH Psychoactive Drug Screening Program (PDSP) receptor panel; assay type: binding; conditions: significant inhibition is considered > 50%
Text: However, the observed toxicity prevents further progression of the compounds. To try and identify a possible driver for toxicity, that may then offer an opportunity to design out this unwanted effect, the key compounds were screened against a panel of receptors at the NIMH Psychoactive Drug Screening Program (PDSP).[36],[37] No significant activity against a large panel of receptors, including dopamine, serotonin, histamine, and muscarinic receptors (see Supporting Information) was observed.
S2: Details of receptors screened at the NIMH Psychoactive Drug Screening Program […]
receptors screened. Significant inhibition is considered > 50%. In cases where negative inhibition (-) is seen, this represents a stimulation of binding. The receptors screened were 5- […]
HT7, Alpha1A, Alpha1B, Alpha1D, Alpha2A, Alpha2B, Alpha2C, Beta1, Beta2, Beta3, BZP rat Brain site, D1, D2, D3, D4, D5, DAT, DOR, GABBA, H1, H2, H3, KOR, M1, M2, M3, M4, M5, MOR, NET, PBR, SERT, Sigma1 and Sigma2

[2] = Mouse brain penetration (brain:blood ratio); conditions: in vivo, dosed intravenously at 0.5 or 1 mg/kg, levels measured after 5 min, female NMRI mice, read-out: B:B (brain to blood ratio)
Method: Each compound was dosed as a bolus solution intravenously at 0.5 or 1 mg free base/kg (dose volume, 5 mL/kg; dose vehicle, 10% DMSO; 40% PEG400; 50% Milli-Q water) to female NMRI mice (n = 6). At 5 and 30 min following intravenous bolus injection of test compound, mice (n = 3/time point) were placed under terminal anesthesia with isofluorane. A blood sample was taken by cardiac puncture and mixed with two volumes of distilled water, the mice decapitated, and the brain removed. Diluted blood and brains were stored frozen until preparation and analysis by UPLC/MS/MS. For each mouse at each time point, the concentration in brain (ng/g) was divided by the concentration in blood (ng/mL) to give a brain:blood ratio. The mean value obtained was quoted.

SMILES: CNC(=O)[C@H]1Cc2ccccc2N1C(=O)Cc1ccc(F)cc1 [Compound 47, (R)-1-(2-(4-Fluorophenyl)acetyl)-N-methylindoline-2-carboxamide]
- inhibition against receptors screened [1]: did not show significant inhibitor
- Kp at 5 min [2]: 0.9
